In ChEMBL document CHEMBL2150986, “Synthesis and biological evaluation of 1-benzylidene-3,4-dihydronaphthalen-2-one as a new class of microtubule-targeting agents” (J Med Chem, 2012):

Columns and labels:
[1] = system: CCRF-CEM; experiment: Cytotoxicity against human CEM cells after 72 hrs by MTT assay; type: functional, cell-based
[2] = system: HCT-116; experiment: cells; details: Homo sapiens, HCT-116, 72 h
[3] = system: MDA-MB-435; experiment: cells; details: Homo sapiens, MDA-MB-435, 72 h
Description: Cytotoxicity against human MDA-MB-435 cells after 72 hrs by MTT assay

[4] = molecular target: Tubulin (Sus scrofa, UniProt P02554+P02550); experiment: Inhibition of porcine brain tubulin assembly measured every 1 min for 60 mins by turbidimetric analysis

SMILES | IC50 [2] [nM] | IC50 [3] [nM] | IC50 [4] [nM] | IC50 [1] [nM]
COc1ccc2c(c1)/C(=C\c1ccc(OC)c(OC)c1OC)C(=O)CC2 | 2680 | 1350 | – | 4210
COc1cc(/C=C2/C(=O)CCc3c(OC)cccc32)cc(OC)c1 | 5670 | 3950 | – | > 10000
COc1ccc2c(c1)/C(=C\c1ccccc1Cl)C(=O)CC2 | 2350 | 1680 | – | 5260
COc1cccc2c1CCC(=O)/C2=C/c1ccc(OC)c(OC)c1OC | > 10000 | > 10000 | – | > 10000
COc1cccc2c1CCC(=O)/C2=C/c1ccc(Cl)cc1Cl | 7140 | 9320 | – | > 10000
COc1cccc2c1CCC(=O)/C2=C/c1ccc(C)cc1 | > 10000 | > 10000 | – | > 10000
COc1ccc2c(c1)CCC(=O)/C2=C/c1ccc(OC)c(OC)c1OC | 1680 | 950 | 25780 | 850
COc1cccc2c1CCC(=O)/C2=C/c1ccc(Cl)c(Cl)c1 | > 10000 | > 10000 | – | > 10000
COc1cccc2c1CCC(=O)/C2=C/c1ccccc1 | > 10000 | 6310 | – | 8690
COc1cccc2c1CCC(=O)/C2=C/c1cc(OC)c(OC)c(OC)c1 | 1240 | 610 | 18680 | 2190
COc1ccc2c(c1)/C(=C\c1cc(OC)c(OC)c(OC)c1)C(=O)CC2 | 510 | 340 | 9630 | 1
COc1ccc2c(c1)/C(=C\c1ccc(Cl)cc1Cl)C(=O)CC2 | > 10000 | > 10000 | – | > 10000
COc1ccc2c(c1)/C(=C\c1cccc(O)c1)C(=O)CC2 | 4910 | 2070 | – | 2570
COc1cccc2c1CCC(=O)/C2=C/c1ccc(Cl)cc1 | 7520 | 6860 | – | 8530
COc1ccc2c(c1)/C(=C\c1ccccc1)C(=O)CC2 | 3210 | 1450 | – | 1530
COc1ccc2c(c1)/C(=C\c1ccc(Cl)c(Cl)c1)C(=O)CC2 | > 10000 | > 10000 | – | > 10000
COc1cccc2c1CCC(=O)/C2=C/c1ccc(C(C)(C)C)cc1 | > 10000 | > 10000 | – | > 10000
COc1ccc(/C=C2/C(=O)CCc3c(OC)cccc32)cc1OC | 2120 | 1540 | – | 1350
COc1ccc(/C=C2/C(=O)CCc3c(OC)cccc32)cc1O | > 10000 | 5620 | – | 6310
COc1cccc2c1CCC(=O)/C2=C/c1ccc([N+](=O)[O-])cc1 | 8680 | 7680 | – | > 10000
COc1cccc2c1CCC(=O)/C2=C/c1c(Cl)cccc1Cl | 6710 | > 10000 | – | 8640
COc1ccc2c(c1)CCC(=O)/C2=C/c1ccc(Cl)cc1Cl | 2150 | 330 | – | 1200
COc1cccc2c1CCC(=O)/C2=C/c1ccc(O)cc1 | 2690 | 1540 | – | 4320
COc1cccc2c1CCC(=O)/C2=C/c1ccccc1Cl | 5770 | 3350 | – | 8910
COc1cccc2c1CCC(=O)/C2=C/c1ccc(N(C)C)cc1 | 9780 | 7760 | – | > 10000
COc1cccc2c1CCC(=O)/C2=C/c1ccc(Br)cc1 | 6800 | 7590 | – | > 10000
COc1cccc2c1CCC(=O)/C2=C/c1ccc(C(F)(F)F)cc1 | 5380 | 5890 | – | > 10000
COc1cc(/C=C2/C(=O)CCc3c(OC)cccc32)ccc1O | > 10000 | 8630 | – | > 10000
COc1cc(/C=C2/C(=O)CCc3ccc(OC)cc32)cc(OC)c1 | 500 | 850 | – | 260

Second part, led by results:

IC50 [2] [nM] | IC50 [3] [nM] | IC50 [4] [nM] | SMILES | IC50 [1] [nM]
320 | 630 | – | COc1ccc2c(c1)CCC(=O)/C2=C/c1ccc(OC)c(O)c1 | 120
1760 | 760 | – | COc1ccc2c(c1)CCC(=O)/C2=C/c1cccc(O)c1 | 1460
4690 | 5830 | – | COc1ccc2c(c1)/C(=C\c1ccc(Cl)cc1)C(=O)CC2 | > 10000
130 | 200 | 6420 | COc1ccc2c(c1)CCC(=O)/C2=C/c1ccc(OC)c(OC)c1 | 72
> 10000 | > 10000 | – | COc1ccc2c(c1)/C(=C\c1ccc(Br)cc1)C(=O)CC2 | > 10000
> 10000 | > 10000 | – | COc1ccc2c(c1)/C(=C\c1ccc(C(C)(C)C)cc1)C(=O)CC2 | > 10000
> 10000 | > 10000 | – | COc1ccc2c(c1)/C(=C\c1ccc(N(C)C)cc1)C(=O)CC2 | > 10000
1130 | 450 | – | COc1ccc2c(c1)CCC(=O)/C2=C/c1ccc(O)cc1 | 960
8950 | > 10000 | – | COc1ccc2c(c1)/C(=C\c1ccc([N+](=O)[O-])cc1)C(=O)CC2 | > 10000
3680 | 2620 | – | COc1ccc2c(c1)/C(=C\c1ccc(C)cc1)C(=O)CC2 | 3770
1370 | 1050 | – | COc1ccc2c(c1)/C(=C\c1ccc(OC)c(O)c1)C(=O)CC2 | 1420
3240 | 860 | – | COc1ccc2c(c1)/C(=C\c1ccc(O)cc1)C(=O)CC2 | 1050
7500 | 4510 | – | COc1ccc2c(c1)CCC(=O)/C2=C/c1ccc(O)c(OC)c1 | 5810
> 10000 | 4350 | – | COc1ccc2c(c1)/C(=C\c1ccc(O)c(OC)c1)C(=O)CC2 | 6930
860 | 210 | 25820 | COc1ccc(/C=C2/C(=O)CCc3cc(OC)ccc32)cc1 | 110
2320 | 750 | – | COc1ccc2c(c1)CCC(=O)/C2=C/c1ccc(C(F)(F)F)cc1 | 1210
2520 | 1230 | – | COc1ccc2c(c1)CCC(=O)/C2=C/c1ccc(Cl)c(Cl)c1 | 1860
470 | 940 | – | COc1ccc2c(c1)CCC(=O)/C2=C/c1ccccc1 | 920
3580 | 1370 | – | COc1ccc(/C=C2/C(=O)CCc3c(OC)cccc32)cc1 | 2640
1700 | 460 | – | COc1ccc2c(c1)CCC(=O)/C2=C/c1ccccc1Cl | 580
1250 | 890 | – | COc1ccc2c(c1)CCC(=O)/C2=C/c1ccc(Cl)cc1 | 950
2230 | 540 | – | COc1ccc2c(c1)CCC(=O)/C2=C/c1ccc([N+](=O)[O-])cc1 | 680
6160 | 6450 | – | COc1ccc2c(c1)/C(=C\c1ccc(C(F)(F)F)cc1)C(=O)CC2 | > 10000
1320 | 890 | – | COc1ccc2c(c1)/C(=C\c1ccc(OC)c(OC)c1)C(=O)CC2 | 270
8730 | 5680 | – | COc1ccc2c(c1)CCC(=O)/C2=C/c1ccc(N(C)C)cc1 | 8030
2940 | 1120 | – | COc1ccc2c(c1)CCC(=O)/C2=C/c1ccc(Br)cc1 | 1520
2560 | 1330 | – | COc1ccc2c(c1)CCC(=O)/C2=C/c1ccc(C)cc1 | 2310
150 | 390 | 6880 | COc1cc(/C=C2/C(=O)CCc3cc(OC)ccc32)cc(OC)c1 | 78
1910 | 730 | – | COc1ccc(/C=C2/C(=O)CCc3ccc(OC)cc32)cc1 | 890
6700 | 1770 | – | COc1ccc2c(c1)CCC(=O)/C2=C/c1ccc(C(C)(C)C)cc1 | 3100
